Read-outs that look alike come from different tables or passages of the source.
Experiments:
786-O-Hif-Luc cells = assay: Luciferase Assay (HIF responsive elements reporter)
Method: A pool of infected cells were then selected against 2 μg/mL of puromycin (P8833, Sigma) for 10 days followed by limited dilution to select single clones. […] Each concentration was tested in triplicate. After about 24 hours, luciferase activity was determined using ONE-Glo Luciferase Assay Reagent (E6110, Promega) following the manufacturer's recommended procedure. EC50 were calculated using Dotmatics software.

[1] = target: T1, HIF-2α HIS TAG-PASB Domain (Homo sapiens, UniProt Q99814); assay: HIF-2α Scintillation Proximity Assay (SPA); assay type: binding
T1 construct: 100 nM HIF-2α HIS TAG-PASB Domain
Summary of the method: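 IC50 values rest on percent inhibition, where the sample signal is scaled between high and low controls. Wells contain about 100 μL: compound dispensed as 2 μL of DMSO solution, 88 μL protein-probe mix and 10 μL of beads.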

[2] = read-out: Mean Luciferase EC50 (nM), 786-O-Hif-Luc cells
[3] = read-out: Mean Luciferase EC50 (nM)
[4] = read-out: Scintillation Proximity Assay IC50

T1 sequence (Q99814 240-350 limits assumed): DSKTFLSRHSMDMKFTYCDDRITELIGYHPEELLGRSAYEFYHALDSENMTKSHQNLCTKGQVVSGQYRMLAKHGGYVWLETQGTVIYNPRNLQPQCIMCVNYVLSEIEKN

Row | SMILES | IC50 [1, 4] [nM] | other results
1 | O=[N+]([O-])c1ccc(Oc2cc(F)cc(Cl)c2)c2c1C(O)CC2 (stereo not shown) [Compound 255] | – | EC50 (786-O-Hif-Luc cells; [2]): > 1000 nM
2 | O=S(=O)(CF)c1ccc(Oc2cc(F)cc(Cl)c2)c2c1[C@H](O)CC2 [Compound 61] | – | EC50 (786-O-Hif-Luc cells; [2]): 50 to 249 nM
3 | N#Cc1cc(F)cc(Oc2ccc(S(=O)(=O)C(F)F)c3c2CC(F)(F)C3O)c1 (stereo not shown) [Compound 11] | – | EC50 (786-O-Hif-Luc cells; [2]): < 50 nM
4 | N#CC1(COc2ccc3c(c2C(F)F)C(O)C(F)(F)S3(=O)=O)CC1 (stereo not shown) [Compound 455] | – | EC50 (786-O-Hif-Luc cells; [2]): > 1000 nM
5 | Cc1c(S(C)(=O)=O)ccc(Oc2cc(F)cc(Cl)c2)c1C#N [Compound 50] | – | EC50 (786-O-Hif-Luc cells; [2]): > 1000 nM
6 | N#Cc1cc(F)cc(Oc2ccc(S(=O)(=O)C(F)F)c3c2CC(F)(F)[C@@H]3O)c1 [Compound 237] | – | EC50 (786-O-Hif-Luc cells; [2]): 50 to 249 nM
7 | N#Cc1cncc(Oc2ccc(S(=O)(=O)C(F)(F)F)c3c2CC(F)(F)[C@H]3O)c1 [Compound 235] | – | EC50 (786-O-Hif-Luc cells; [3]): < 50 nM
8 | N#Cc1cc(F)cc(Oc2ccc(S(=O)(=O)C(F)(F)F)c3c2CC[C@H]3O)c1 [Compound 57] | – | EC50 (786-O-Hif-Luc cells; [3]): 50 to 249 nM
9 | N#Cc1cc(F)cc(Oc2ccc(S(=O)(=O)C(F)(F)F)c3c2CC(F)(F)[C@H]3N)c1 [Compound 290] | – | EC50 (786-O-Hif-Luc cells; [3]): 50 to 249 nM
10 | CS(=O)(=O)c1ccc(Oc2cc(F)cc(C#N)c2)c2c1C(O)CC2 (stereo not shown) [Compound 222] | – | EC50 (786-O-Hif-Luc cells; [2]): > 1000 nM
11 | CNS(=O)(=O)c1ccc(Oc2cc(F)cc(C#N)c2)c2c1[C@H](O)C(F)(F)C2 [Compound 254] | – | EC50 (786-O-Hif-Luc cells; [3]): 50 to 249 nM
12 | N#Cc1cccc(Oc2ccc(S(=O)(=O)C(F)F)c3c2CC[C@H]3O)c1 [Compound 156] | – | EC50 (786-O-Hif-Luc cells; [3]): 250 to 1000 nM
13 | [2H][C@]1(O)c2c(S(C)(=O)=O)ccc(Oc3cc(F)cc(C#N)c3)c2CC1(F)F [Compound 247] | – | EC50 (786-O-Hif-Luc cells; [3]): < 50 nM
14 | CS(=O)(=O)c1ccc(Oc2cc(F)cc(C#N)c2)c2c1[C@@H](O)C(F)(F)C2 [Compound 226] | – | EC50 (786-O-Hif-Luc cells; [3]): > 1000 nM
15 | CS(=O)(=O)c1ccc(Oc2cc(F)cc(C#N)c2)c2c1[C@H](O)[C@H](F)[C@H]2F [Compound 294] | – | EC50 (786-O-Hif-Luc cells; [2]): 250 to 1000 nM
16 | O=S(=O)(c1ccc(Oc2cncc(Cl)c2)c2c1[C@H](O)C(F)(F)C2)C(F)F [Compound 25] | – | EC50 (786-O-Hif-Luc cells; [2]): < 50 nM
17 | CCS(=O)(=O)c1ccc(Oc2cc(F)cc(C#N)c2)c2c1[C@H](O)C(F)(F)C2 [Compound 206] | – | EC50 (786-O-Hif-Luc cells; [3]): 50 to 249 nM
18 | N#Cc1cc(F)cc(Oc2ccc(S(N)(=O)=O)c3c2[C@@H](F)[C@@H](F)[C@H]3O)c1 [Compound 336] | – | EC50 (786-O-Hif-Luc cells; [2]): 50 to 249 nM
19 | CNS(=O)(=O)c1ccc(Oc2cc(F)cc(F)c2)c2c1[C@H](O)C(F)(F)C2 [Compound 251] | – | EC50 (786-O-Hif-Luc cells; [3]): 50 to 249 nM
20 | CS(=O)(=O)c1ccc(Oc2cc(F)cc(Cl)c2)c(C(F)F)c1CO [Compound 54] | – | EC50 (786-O-Hif-Luc cells; [2]): 250 to 1000 nM

Row | SMILES | IC50 [1, 4] [nM] | other results
21 | N#Cc1cc(F)cc(Oc2ccc(S(N)(=O)=O)c3c2CC(F)(F)[C@H]3O)c1 [Compound 252] | – | EC50 (786-O-Hif-Luc cells; [3]): 50 to 249 nM
22 | O=S(=O)(c1ccc(Oc2ccc(F)c3[nH]ncc23)c2c1[C@H](O)C(F)(F)C2)C(F)(F)F [Compound 266] | – | EC50 (786-O-Hif-Luc cells; [2]): < 50 nM
23 | N#Cc1cc(F)cc(Oc2ccc(S(=O)(=O)CCl)c3c2CC(F)(F)[C@H]3O)c1 [Compound 215] | – | EC50 (786-O-Hif-Luc cells; [2]): < 50 nM
24 | CS(=O)(=O)c1ccc(Oc2cc(F)cc(C#N)c2)c2c1[C@H](O)[C@@H](F)C2 [Compound 271] | – | EC50 (786-O-Hif-Luc cells; [3]): 250 to 1000 nM
25 | C=CCN=S(=O)(c1ccc(Oc2cc(F)cc(C#N)c2)c2c1[C@H](O)C(F)(F)C2)C(F)(F)F (stereo partly shown) [Compound 307] | 250 to 1000 | –
26 | OC1CCc2c(OCC(F)F)ccc(C(F)(F)F)c21 (stereo not shown) [Compound 662] | > 1000 | –
27 | O=S(=O)(c1ccc(Oc2cc(F)cc(Cl)c2)c(Cl)c1CNCC(F)(F)F)C(F)F [Compound 47] | > 1000 | –
28 | CNCCOc1ccc(S(=O)(=O)C(F)(F)F)c2c1CC(F)(F)C2O (stereo not shown) [Compound 650] | > 1000 | –
29 | Cc1n[nH]c(C)c1-c1ccc(S(=O)(=O)C(F)(F)F)c2c1CC(F)(F)[C@H]2O [Compound 562] | > 1000 | –
30 | O=S(=O)(c1ccc(O[C@@H]2CCCc3cn[nH]c32)c2c1[C@H](O)C(F)(F)C2)C(F)(F)F [Compound 729] | > 1000 | –
31 | Cc1c(Oc2cc(F)cc(C#N)c2)ccc(S(=O)(=O)C(F)(F)F)c1/C=C/c1nnco1 [Compound 150] | > 1000 | –
32 | CS(=O)(=NC#N)c1ccc(Oc2cc(F)cc(C#N)c2)c2c1C(O)CC2 (stereo not shown) [Compound 68] | > 1000 | –
33 | N#Cc1cc(S(=N)(=O)C(F)(F)F)ccc1Oc1cc(F)cc(Cl)c1 (stereo not shown) [Compound 72] | 250 to 1000 | –
34 | O=S1(=O)CCC(O)c2c1ccc(Oc1cc(F)cc(F)c1)c2C(F)F (stereo not shown) [Compound 402] | – | IC50 ([1]; Scintillation Proximity Assay IC50 (nM)): > 1000 nM
35 | O=S(=O)(c1ccc(Cn2ccnn2)c2c1[C@H](O)C(F)(F)C2)C(F)(F)F [Compound 536] | > 1000 | –
36 | CC(=O)N1CCC(Oc2ccc(S(=O)(=O)C(F)(F)F)c3c2CC(F)(F)C3O)C1 (stereo not shown) [Compound 629] | > 1000 | –
37 | CC(=O)NCCOc1ccc(S(=O)(=O)C(F)(F)F)c2c1CC(F)(F)C2O (stereo not shown) [Compound 636] | > 1000 | –
38 | OC1c2c(F)ccc(OCC(F)F)c2CC1(F)F (stereo not shown) [Compound 652] | > 1000 | –
39 | CS(=O)(=O)c1ccc(O[C@H]2CC[C@@H](C#N)CC2)c2c1[C@H](O)C(F)(F)[C@@H]2F [Compound 758] | > 1000 | –
40 | O=S(=O)(c1ccc(Oc2cc(F)cc(Cl)c2)c(Cl)c1CNC1CCCOC1)C(F)F (stereo not shown) [Compound 49] | > 1000 | –

Row | SMILES | IC50 [1, 4] [nM] | other results
41 | O=S(=O)(c1ccc(-c2ccccc2O)c2c1[C@H](O)C(F)(F)C2)C(F)(F)F [Compound 564] | > 1000 | –
42 | N#Cc1cc(F)cc(Oc2ccc(S(=O)(=O)C(F)(F)F)c(Cl)c2C#N)c1 [Compound 29] | < 50 | –
43 | N#Cc1cncc(Oc2ccc(S(=O)(=O)C(F)F)c3c2CC[C@H]3O)c1 [Compound 4] | > 1000 | –
44 | CS(=O)(=NC#N)c1ccc(Oc2cncc(C#N)c2)c2c1[C@@H](O)C(F)(F)[C@@H]2F (stereo partly shown) [Compound 320] | > 1000 | –
45 | CCS(=O)(=O)c1ccc(Oc2cc(F)cc(C#N)c2)c2c1C(O)CC2 (stereo not shown) [Compound 205] | > 1000 | –
46 | O=S(=O)(c1ccc(Oc2cc(F)cc3[nH]ncc23)c2c1C(O)C(F)(F)C2)C(F)(F)F (stereo not shown) [Compound 262] | > 1000 | –
47 | NC1CCc2c(Oc3cc(F)cc(F)c3)ccc(S(=O)(=O)C(F)F)c21 (stereo not shown) [Compound 19] | > 1000 | –
48 | CS(=O)(=O)c1cc(F)c(Oc2cc(F)cc(C#N)c2)c2c1C(O)C(F)(F)C2 (stereo not shown) [Compound 219] | > 1000 | –
49 | N#Cc1cc(F)cc(Oc2ccc(S(=N)(=O)C(F)(F)F)cc2C#N)c1 (stereo not shown) [Compound 73] | > 1000 | –
50 | N=S1(=O)c2ccc(Oc3cc(F)cc(F)c3)c(C(F)F)c2C(O)C1(F)F (stereo not shown) [Compound 399] | 50 to 249 | –
51 | OC1c2cccc(OCC(F)F)c2CC1(F)F (stereo not shown) [Compound 651] | > 1000 | –
52 | N#CN=S(=O)(CF)c1ccc(Oc2cc(F)cc(C#N)c2)c2c1[C@H](O)CC2 (stereo partly shown) [Compound 282] | > 1000 | –
53 | CC(C)(C)OC(=O)NCc1c(S(=O)(=O)C(F)F)ccc(Oc2cc(F)cc(Cl)c2)c1Br [Compound 83] | > 1000 | –
54 | Cc1c(S(C)(=O)=O)ccc(Oc2cc(F)cc(C#N)c2)c1C#N [Compound 51] | > 1000 | –
55 | N#Cc1cc(Oc2ccc(S(=O)(=O)C(F)(F)F)c3c2CCC3O)ccc1F (stereo not shown) [Compound 216] | > 1000 | –
56 | N#Cc1cncc(Oc2ccc(S(N)(=O)=O)c3c2[C@@H](F)C(F)(F)[C@H]3O)c1 [Compound 340] | < 50 | –
57 | CS(=N)(=O)c1ccc(Oc2cc(F)cc(Cl)c2)c(C#N)c1Cl (stereo not shown) [Compound 180] | > 1000 | –
58 | Fc1cc(F)cc(Oc2ncc(Br)c3c2CCC3)c1 [Compound 469, 4-bromo-1-(3,5-difluorophenoxy)-6,7-dihydro-5H-cyclopenta[c]pyridine] | > 1000 | –

Reference: patent US10278942B2 (PELOTON THERAPEUTICS, INC., priority 2015, dated 2019)
